The record followed here is patent US4419352A, “Pyranoquinolinones and analogs thereof” (Fisons Limited, priority 1978, dated 1983).

One series deals with anaesthatised cats. Description: blood pressure, heart rate and cardiac output of anaesthetised cats. It counts as in vivo, cat.
Series [1] relates to cardiovascular response to isoprenaline. Description: cardiovascular response to isoprenaline in the cat. It is filed as in vivo.
A further series relates to rats. Description: food choice (revulsion) test in rats. It is filed as in vivo, rat.
Series [2] can be described thus: sub-cutaneous LD50 in rats. The note with it: rat, in vivo, sc.
The subject of series [3] is human volunteer suffering from specific allergic asthma. Description: antigen inhalation provocation test (F E V1.0, percent protection). Particulars: F E V1.0, after drug administration. It is filed as in vivo. The method, then:
Clinical evaluation of the compounds was carried out using the antigen inhalation provocation test described below:
The human volunteer selected for test purposes suffered from specific allergic asthma. In this subject an asthma attack normally followed the inhalation of an antigen to which they were specifically sensitive. The degree of asthma provoked by this method can be measured by repeated examination of the air way resistance.
The antiallergic activity of a compound is estimated from the difference between the maximum percent F E V1.0 reduction following control and test provocations after drug administration conducted under identical experimental conditions.
The results of the tests are expressed as percent protection according to the formula: [formula]

Series [4] deals with cardiovascular response to isoprenaline. The series can be described thus: cardiovascular response to isoprenaline in the rat. It counts as in vivo.
Series [5] can be described thus: sub-cutaneous LD50 in mice. The note with it: mouse, in vivo, sc.

As a reminder, the LD50 is the dose expected to kill half of the subjects tested. Low values mean greater toxicity, high ones lower toxicity. As for `CCCc1c2nc(C(=O)[O-])cc(Cl)c2cc2c(=O)cc(C(=O)[O-])oc12.[Na+].[Na+]`, the “effect on blood pressure” value in the series on anaesthatised cats is recorded as “without effect”. Further, the “effect on cardiac output” value in the series with anaesthatised cats is given as “without effect”. The “effect on heart rate” value with anaesthatised cats was “without effect”. For the same compound, the “alteration of cardiovascular response to isoprenaline” value in series [1] and in series [4] was “did not alter” each time. Further, the “revulsion when rats choose between food source containing it and one which does not” value with rats was “does not produce revulsion”. The LD50 in series [2] and in series [5] was above 2000 mg/kg throughout. Also, in series [3], the “protection against asthma provoked by antigen inhalation” value is recorded as “very considerable protection”.
